Results taken from patent US10836747B2, “Ethane-sulfonate salt of quinoline derivative” (ONO PHARMACEUTICAL CO., LTD., priority 2017, dated 2020).

Tests used:
[1] = Evaluation of hygroscopicity (DVS; dynamic vapor sorption); type: physicochemical; conditions: for Weight increase at relative humidity of 90% (%): DVS, 25° C., relative to weight at 0% RH after drying
Experimental: [3] Evaluation of Hygroscopicity (DVS; Dynamic Vapor Sorption)
Device: SGA-100 manufactured by TA Instruments,
Sample amount: 10 to 20 mg,
Measurement temperature: 25° C.,
Drying before measurement: 60° C., 1 hour,
Starting humidity: 0% RH,
Maximum humidity: 90% RH,
Equilibrium criteria: weight change rate in 5 minutes is 0.01% or less,
Sampling interval: 30 seconds,
Data recording interval: two minutes or time at which weight change rate become 0.01% or more.
Various acid addition salts of the compounds A produced in Examples (Examples 7, 8, 9, 10, 11, 12, 13, and 14) and the compound of the present invention (Example 6) were subjected to hygroscopicity evaluation. Based on the measurement conditions shown in [3] in [Study of acid addition salt of compound A], hygroscopicity was evaluated. Sample weight was recorded after the weight of the sample in the relative humidity set every 10% became equilibrium. After drying, the change amount (%) was converted on the basis of the weight when the relative humidity was 0%.

[2] = Light stability evaluation of active pharmaceutical ingredient; type: physicochemical; conditions: for residual rate %: active pharmaceutical ingredient, 2500 Lux D65 lamp, 25° C., 20 days
Experimental: (§1) Ethanesulfonate of the compound A produced in Example 6 and p-toluenesulfonate of the compound A produced in Example 9 were evaluated in terms of the light stability. Each acid addition salt was weighed in a laboratory tube in about 1.8 to 2.2 mg, capped with a plastic cap and wrapped with a parafilm. A sample placed in the transparent laboratory tube was used as an exposure sample, a sample placed in the brown laboratory tube was used as a light shielded sample, and a sample placed in the brown laboratory tube and further covered with aluminum foil was used as an aluminum foil completely shielded sample. Each sample was exposed to light whose total illumination of 1200000 Lux-h or more and total near ultraviolet radiation energy of 200 W·h/m^2 or more by exposing to 2500 Lux D65 lamp at 25° C. for 20 days.
Detector: ultraviolet spectrometer (measurement wavelength: 215 nm),
Column: Imtakt Unison UK-C18 (3 μm, inner diameter: 4.6 mm×150 mm),
Column temperature: 40° C.,
Mobile phase: A liquid: 20 mM KH2PO4 aq. (pH 3.0), B liquid: CH3CN,
Flow rate: 1.0 mL/minute,
Area measurement range: 60 minutes
Sample concentration: 0.5 mg/mL.
(§2) The area percentage of ethanesulfonate of the compound A and p-toluenesulfonate of the compound A which were not exposed to light and stored at −20° C., and each acid addition salt of the compound A subjected to the above light stability test were calculated under the measurement conditions mentioned above. Next, in each acid addition salt of the compound A, the rate of the area percentage of the acid addition salt of the compound A which was not exposed to light and stored at −20° C. (area percentage of acid addition salt of compound A exposed to light for 20 days/area percentage of acid addition salt of compound A which is not exposed to light and stored at −20° C.×100) was calculated as the residual rate of each compound.

[3] = Light stability evaluation of simple formulation (mixed with CEOLUS PH-301); type: physicochemical; conditions: simple formulation with CEOLUS PH-301 1 to 5 (weight ratio), 2500 Lux D65 lamp, 25° C., 20 days
Experimental: as §1, §2
Each acid addition salt of the compound A, regarding to ethanesulfonate of the compound A produced in Example 6 and p-toluenesulfonate of the compound A produced in Example 9, was mixed with CEOLUS (registered trademark) PH-301 (Asahi Kasei Corporation) in a mixing ratio of 1 to 5 (weight ratio) on a medicine paper with a spatula to prepare a simple formulation. The simple formulation was weighed into a laboratory tube in about 3 mg, capped with a plastic cap, and wrapped with a parafilm. Hereinafter, the light exposure condition of the compound, and the measurement conditions were corresponding to the […] of the stability of the active pharmaceutical ingredient of above (1).

Axl = target: T1, Axl (Homo sapiens, UniProt P30530); conditions: mentioned in Patent Literature 5 (WO2015/012298); cited from earlier work
T1 sequence (P30530 26-894): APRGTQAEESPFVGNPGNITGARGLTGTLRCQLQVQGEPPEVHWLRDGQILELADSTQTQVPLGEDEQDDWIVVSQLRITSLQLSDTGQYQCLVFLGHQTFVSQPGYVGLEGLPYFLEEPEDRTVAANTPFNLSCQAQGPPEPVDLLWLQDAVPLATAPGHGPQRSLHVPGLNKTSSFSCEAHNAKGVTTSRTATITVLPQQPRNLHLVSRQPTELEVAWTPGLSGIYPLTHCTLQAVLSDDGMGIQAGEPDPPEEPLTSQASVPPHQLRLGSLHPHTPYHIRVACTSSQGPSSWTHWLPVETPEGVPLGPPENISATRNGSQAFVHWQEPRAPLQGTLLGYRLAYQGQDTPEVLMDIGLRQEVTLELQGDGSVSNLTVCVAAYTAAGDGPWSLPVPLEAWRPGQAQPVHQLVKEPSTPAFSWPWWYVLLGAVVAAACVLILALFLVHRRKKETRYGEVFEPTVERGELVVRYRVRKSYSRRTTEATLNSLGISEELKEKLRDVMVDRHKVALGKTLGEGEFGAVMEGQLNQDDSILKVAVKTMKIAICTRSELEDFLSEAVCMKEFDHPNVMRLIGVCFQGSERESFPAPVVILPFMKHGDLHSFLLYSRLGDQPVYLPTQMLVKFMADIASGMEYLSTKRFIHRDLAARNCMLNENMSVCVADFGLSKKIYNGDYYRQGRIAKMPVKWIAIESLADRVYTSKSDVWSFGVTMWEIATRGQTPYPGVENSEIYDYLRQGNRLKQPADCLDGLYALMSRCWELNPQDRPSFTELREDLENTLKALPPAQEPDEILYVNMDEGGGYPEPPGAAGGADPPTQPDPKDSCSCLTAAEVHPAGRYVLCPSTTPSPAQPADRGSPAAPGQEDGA

CYP = conditions: mentioned in Patent Literature 5 (WO2015/012298); cited from earlier work
[4] = Brown bottle (light shielded sample)
[5] = Transparent bottle (exposure sample)

In the case of `COc1cc2nccc(Oc3ccc(NC(=O)c4cc5c(n(-c6ccccc6)c4=O)CCCC5=O)nc3)c2cc1OC.O=S(=O)(O)c1ccccc1` [Benzensuplhonate, N-{5-[(6,7-dimethoxy-4-quinolinyl)oxy]-2-pyridinyl}-2,5-dioxo-1-phenyl-1,2,5,6,7,8-hexahydro-3-quinolinecarboxamide benzenesulfonate], the “Weight increase at relative humidity of 90% (%)” value [1] is reported as 7.2%.

With `COc1cc2nccc(Oc3ccc(NC(=O)c4cc5c(n(-c6ccccc6)c4=O)CCCC5=O)nc3)c2cc1OC.O=S(=O)(O)CCS(=O)(=O)O` [Ethanedisulfonate, N-{5-[(6,7-dimethoxy-4-quinolinyl)oxy]-2-pyridinyl}-2,5-dioxo-1-phenyl-1,2,5,6,7,8-hexahydro-3-quinolinecarboxamide ethanedisulfonate] the “Weight increase at relative humidity of 90% (%)” value [1] was 46.4%.

With `CCS(=O)(=O)O.COc1cc2nccc(Oc3ccc(NC(=O)c4cc5c(n(-c6ccccc6)c4=O)CCCC5=O)nc3)c2cc1OC` [Ethanesulfonate, N-{5-[(6,7-dimethoxy-4-quinolinyl)oxy]-2-pyridinyl}-2,5-dioxo-1-phenyl-1,2,5,6,7,8-hexahydro-3-quinolinecarboxamide ethanesulfonate] the “Weight increase at relative humidity of 90% (%)” value [1] was 0.7%, the “rate of weight change upon moisture absorption (in words)” value ([1]; among various acid addition salts of the compound A) was “small rate of weight change upon moisture absorption” and the residual rate % ([2]; Aluminum foil shielding) was 100.0%. For the same molecule, the residual rate % [2, 4] was 99.5%, the residual rate % [2, 5] was 94.5% and the “stability to light (in words)” value ([2]; compared with p-toluenesulfonate of the compound A, API and simple formulation) was “more excellent also in terms of the stability to light”. The residual rate % ([3]; Aluminum foil shielding) was 99.7%, the residual rate % ([3]; Brown bottle) was 98.4% and the residual rate % ([3]; Transparent bottle) was 59.3%.

In the case of `COc1cc2nccc(Oc3ccc(NC(=O)c4cc5c(n(-c6ccccc6)c4=O)CCCC5=O)nc3)c2cc1OC.Cl` [Hydrochloride, N-{5-[(6,7-dimethoxy-4-quinolinyl)oxy]-2-pyridinyl}-2,5-dioxo-1-phenyl-1,2,5,6,7,8-hexahydro-3-quinolinecarboxamide hydrochloride], the “Weight increase at relative humidity of 90% (%)” value [1] is reported as 8.0%.

In the case of `COc1cc2nccc(Oc3ccc(NC(=O)c4cc5c(n(-c6ccccc6)c4=O)CCCC5=O)nc3)c2cc1OC.O=S(=O)(O)CCO` [Isethionate, N-{5-[(6,7-dimethoxy-4-quinolinyl)oxy]-2-pyridinyl}-2,5-dioxo-1-phenyl-1,2,5,6,7,8-hexahydro-3-quinolinecarboxamide isethionate], the “Weight increase at relative humidity of 90% (%)” value [1] is reported as 14.5%.

For `COc1cc2nccc(Oc3ccc(NC(=O)c4cc5c(n(-c6ccccc6)c4=O)CCCC5=O)nc3)c2cc1OC.CS(=O)(=O)O` [Methanesulfonate, N-{5-[(6,7-dimethoxy-4-quinolinyl)oxy]-2-pyridinyl}-2,5-dioxo-1-phenyl-1,2,5,6,7,8-hexahydro-3-quinolinecarboxamide methanesulfonate], the “Weight increase at relative humidity of 90% (%)” value [1] was 4.0%.

In the case of `COc1cc2nccc(Oc3ccc(NC(=O)c4cc5c(n(-c6ccccc6)c4=O)CCCC5=O)nc3)c2cc1OC.Cc1ccc(S(=O)(=O)O)cc1` [P-toluenesulfonate, N-{5-[(6,7-dimethoxy-4-quinolinyl)oxy]-2-pyridinyl}-2,5-dioxo-1-phenyl-1,2,5,6,7,8-hexahydro-3-quinolinecarboxamide p-toluenesulfonate], the “Weight increase at relative humidity of 90% (%)” value [1] is reported as 2.6%, the residual rate % ([2]; Aluminum foil shielding) is reported as 100.6% and the residual rate % [2, 4] is reported as 92.7%. For the same molecule, the residual rate % [2, 5] was 86.1%, the residual rate % ([3]; Aluminum foil shielding) was 99.9% and the residual rate % ([3]; Brown bottle) was 83.3%. For the same molecule, the residual rate % ([3]; Transparent bottle) was 40.7%.

With `COc1cc2nccc(Oc3ccc(NC(=O)c4cc5c(n(-c6ccccc6)c4=O)CCCC5=O)nc3)c2cc1OC.O=P(O)(O)O` [Phosphate, N-{5-[(6,7-dimethoxy-4-quinolinyl)oxy]-2-pyridinyl}-2,5-dioxo-1-phenyl-1,2,5,6,7,8-hexahydro-3-quinolinecarboxamide phosphate] the “Weight increase at relative humidity of 90% (%)” value [1] was 5.5%.

With `COc1cc2nccc(Oc3ccc(NC(=O)c4cc5c(n(-c6ccccc6)c4=O)CCCC5=O)nc3)c2cc1OC.O=S(=O)(O)O` [Sulfate, N-{5-[(6,7-dimethoxy-4-quinolinyl)oxy]-2-pyridinyl}-2,5-dioxo-1-phenyl-1,2,5,6,7,8-hexahydro-3-quinolinecarboxamide sulfate] the “Weight increase at relative humidity of 90% (%)” value [1] was 7.2%.

In the case of `COc1cc2nccc(Oc3ccc(NC(=O)c4cc5c(n(-c6ccccc6)c4=O)CCCC5=O)nc3)c2cc1OC` [compound A, N-{5-[(6,7-dimethoxy-4-quinolinyl)oxy]-2-pyridinyl}-2,5-dioxo-1-phenyl-1,2,5,6,7,8-hexahydro-3-quinolinecarboxamide], the “Axl-selective inhibiting activity (in words)” value (Axl) is given as “Axl-selective inhibiting activity” and the “CYP inhibitory action (in words)” value (CYP) is given as “low CYP inhibitory action”.
